Legend:
[1] = target: Neurolysin, mitochondrial (Rattus norvegicus, UniProt P42676); experiment: Activation of recombinant rat Nln using MCA-Pro-Leu-Gly-Pro-D-Lys (DNP)-OH as substrate preincubated for 10 mins followed by substrate addition and measured after 20 mins by fluorescence based assay
[2] = target: Neurolysin, mitochondrial (Rattus norvegicus) (UniProt P42676); experiment: Activation of recombinant rat Nln assessed as maximal efficacy using MCA-Pro-Leu-Gly-Pro-D-Lys (DNP)-OH as substrate preincubated for 10 mins followed by substrate addition and measured after 20 mins by fluorescence based assay relative to control; conditions: filed as activator, time 30.0 min
[3] = Permeability of compound in mouse BEND3 cells co-cultured with mouse primary astrocytes measured upto 120 mins by LC-MS/MS; type: ADME, cell-based; conditions: 2 h

Chain of Neurolysin, mitochondrial (P42676 whole entry): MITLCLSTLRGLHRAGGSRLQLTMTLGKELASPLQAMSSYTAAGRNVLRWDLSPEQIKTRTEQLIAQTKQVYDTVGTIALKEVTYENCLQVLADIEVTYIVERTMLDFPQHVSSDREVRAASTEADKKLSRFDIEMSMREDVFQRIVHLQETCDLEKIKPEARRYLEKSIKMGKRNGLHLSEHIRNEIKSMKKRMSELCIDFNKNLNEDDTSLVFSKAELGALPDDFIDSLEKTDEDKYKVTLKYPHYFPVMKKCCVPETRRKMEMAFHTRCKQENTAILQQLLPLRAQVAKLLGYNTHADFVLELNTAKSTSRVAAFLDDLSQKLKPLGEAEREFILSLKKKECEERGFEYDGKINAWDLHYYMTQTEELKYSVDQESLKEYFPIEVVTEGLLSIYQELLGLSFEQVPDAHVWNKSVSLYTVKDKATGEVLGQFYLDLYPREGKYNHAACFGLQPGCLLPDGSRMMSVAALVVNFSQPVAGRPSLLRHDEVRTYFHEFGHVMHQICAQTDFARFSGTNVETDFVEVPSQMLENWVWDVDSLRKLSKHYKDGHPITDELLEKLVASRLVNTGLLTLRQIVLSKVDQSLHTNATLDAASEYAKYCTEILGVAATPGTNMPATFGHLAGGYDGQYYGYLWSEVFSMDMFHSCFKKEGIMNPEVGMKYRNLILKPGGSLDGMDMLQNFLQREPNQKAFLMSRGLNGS
Chain of Neurolysin, mitochondrial (Rattus norvegicus) (P42676 38-704 limits assumed): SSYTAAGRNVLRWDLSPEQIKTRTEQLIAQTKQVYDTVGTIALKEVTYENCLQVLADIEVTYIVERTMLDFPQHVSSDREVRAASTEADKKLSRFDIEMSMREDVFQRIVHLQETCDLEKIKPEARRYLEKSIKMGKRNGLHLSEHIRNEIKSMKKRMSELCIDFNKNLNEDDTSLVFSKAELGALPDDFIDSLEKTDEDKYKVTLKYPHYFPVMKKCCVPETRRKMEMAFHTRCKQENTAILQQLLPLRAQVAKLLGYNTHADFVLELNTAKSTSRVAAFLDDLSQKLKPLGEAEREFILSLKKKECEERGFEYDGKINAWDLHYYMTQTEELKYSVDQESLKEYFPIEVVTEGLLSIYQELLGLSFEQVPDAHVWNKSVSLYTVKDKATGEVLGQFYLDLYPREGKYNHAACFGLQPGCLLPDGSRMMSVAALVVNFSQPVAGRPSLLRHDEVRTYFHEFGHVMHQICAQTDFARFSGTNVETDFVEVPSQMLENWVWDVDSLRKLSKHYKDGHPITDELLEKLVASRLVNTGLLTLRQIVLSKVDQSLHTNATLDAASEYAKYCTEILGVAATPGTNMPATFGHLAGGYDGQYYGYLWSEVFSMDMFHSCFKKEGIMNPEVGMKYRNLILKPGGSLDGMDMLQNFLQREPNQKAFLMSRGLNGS

## N[C@@H](Cc1c[nH]cn1)C(=O)Nc1ccccc1F
[1]
  EC50: 37.5 µM
[2]
  Emax: 268%

## COc1cc(NC(=O)[C@@H](N)Cc2c[nH]cn2)cc(OC)c1
[1]
  EC50: 52.1 µM
[2]
  Emax: 463%
[3]
  permeability: Permeable

## COc1ccccc1NC(=O)[C@@H](N)Cc1c[nH]cn1
[1]
  EC50: 45.1 µM
[2]
  Emax: 426%

## N[C@@H](Cc1c[nH]cn1)C(=O)Nc1cccc(C(F)(F)F)c1
[1]
  EC50: 28.6 µM
[2]
  Emax: 312%

## N[C@@H](Cc1c[nH]cn1)C(=O)Nc1cc(C(F)(F)F)cc(C(F)(F)F)c1
[1]
  EC50: 279 µM
[2]
  Emax: 633%

## N[C@@H](Cc1c[nH]cn1)C(=O)Nc1c(F)cc(Br)cc1F
[1]
  EC50: 26.7 µM
[2]
  Emax: 370%

## N[C@@H](Cc1c[nH]cn1)C(=O)Nc1cccc(F)c1
[1]
  EC50: 24.8 µM
[2]
  Emax: 382%

## N[C@H](Cc1c[nH]cn1)C(=O)Nc1ccccc1F
[1]
  EC50: 78.2 µM
[2]
  Emax: 331%

## COc1ccc(NC(=O)[C@@H](N)Cc2c[nH]cn2)cc1
[1]
  EC50: 241 µM
[2]
  Emax: 582%

## COc1ccccc1NC(=O)[C@H](N)Cc1c[nH]cn1
[1]
  EC50: 53.5 µM
[2]
  Emax: 428%

## COc1cc(NC(=O)[C@@H](N)Cc2c[nH]cn2)cc(OC)c1OC
[1]
  EC50: 117 µM
[2]
  Emax: 436%

## N[C@H](Cc1c[nH]cn1)C(=O)Nc1cccc(F)c1
[1]
  EC50: 30.9 µM
[2]
  Emax: 396%

## COc1cccc(NC(=O)[C@H](N)Cc2c[nH]cn2)c1
[1]
  EC50: 121 µM
[2]
  Emax: 478%

## COc1cccc(NC(=O)[C@@H](N)Cc2c[nH]cn2)c1
[1]
  EC50: 105 µM
[2]
  Emax: 454%

## COc1ccc(NC(=O)[C@H](N)Cc2c[nH]cn2)cc1
[1]
  EC50: 214 µM
[2]
  Emax: 540%

## N[C@@H](Cc1c[nH]cn1)C(=O)Nc1ccc(F)cc1
[1]
  EC50: 136 µM
[2]
  Emax: 488%

## N[C@H](Cc1c[nH]cn1)C(=O)Nc1ccc(F)cc1
[1]
  EC50: 36.1 µM
[2]
  Emax: 403%

## N[C@H](Cc1c[nH]cn1)C(=O)Nc1cccc(C(F)(F)F)c1
[1]
  EC50: 22.8 µM
[2]
  Emax: 362%

## N[C@H](Cc1c[nH]cn1)C(=O)Nc1ccc(C(F)(F)F)cc1
[1]
  EC50: 15.6 µM
[2]
  Emax: 325%
[3]
  permeability: Permeable

## N[C@@H](Cc1c[nH]cn1)C(=O)Nc1ccc(C(F)(F)F)cc1
[1]
  EC50: 32.2 µM
[2]
  Emax: 335%

## N[C@@H](Cc1c[nH]cn1)C(=O)Nc1ccc(C(F)(F)F)cc1C(F)(F)F
[1]
  EC50: 25.2 µM
[2]
  Emax: 368%

## N[C@@H](Cc1c[nH]cn1)C(=O)Nc1cc(F)cc(F)c1
[1]
  EC50: 90.6 µM
[2]
  Emax: 431%

From ChEMBL document CHEMBL5120788, “Structure-activity relationship studies of functionalized aromatic peptidomimetics as neurolysin activators” (Bioorg Med Chem Lett, 2022)
